Data on nine compounds can be found in patent publication US20060216749A1, “Chimeric gaba receptor” (priority 2003, published 2006).

Assay [1] has as its target hGABABR1a/GABABR2 receptor (CHO membranes) (Homo sapiens, UniProt O75899+Q9UBS5). Briefly: GTPγ35S activation assay.
Experimental: (§1) Butyrate-stimulated (5 mM final) cells were scraped, after a short rinse with PBS, in 50 mM TrisHCl pH7.4 and centrifuged at 23500 g for 10 min. at 4° C. The pellet was homogenised in 5 mM TrisHCI pH 7.4 by Ultra-Turrax (24000 rpm) followed by centrifugation at 30000 g for 20 min. at 4° C. The resulting pellet was resuspended in 50 mM TrisHCl pH 7.4 and rehomogenised. Protein concentration was determined using the Bradford method.
Filters were rinsed 6 times with cold 10 mM phosphate buffer pH 7.4, and dried overnight before addition of 30 μl Microscint O, and measurement in Topcount (Packard, 1 min./well).
Assay [2] deals with hGABABR1a/R2 heterodimeric GABAB receptor (CHO membranes) (Homo sapiens, UniProt O75899+Q9UBS5). The experiment in a line: biochemical.
Experimental: as §1
An agonist filter binding assay has been developed in 96-well GF/B filterplate.
Assay [3] concerns the target GABAB receptor expressed by the hGABABR1a/GABABR2 CHO cell line (Homo sapiens, UniProt O75899+Q9UBS5). Particulars: 10 μM in saturation assay, FIGS. 4a, b.
Experimental: Agonist centrifugation Binding AssayIn an alternative binding assay the non-bound ligand was separated from the membranes by centrifugation instead of filtration. The assay was performed according to the earlier described filter binding assay, with the difference that the non-bound ligand was separated from the membranes by centrifugation in a microcentrifuge at 12500 rpm for 10 minutes. The supernatant was discarded, the pellet was rinsed with washing buffer and dissolved in 200 μl water.
The target in assay [4] is native GABAB receptor, Pig (Sus scrofa, UniProt A0A480I1B8). Particulars: Facklam & Bowery, 1993; cited from earlier work.
Assay [5] addresses T1, native GABAB receptor, Rat (Rattus norvegicus, UniProt Q9Z0U4).
T1 construct: host or cells: rat tissue preparations
Particulars: published results; cited from earlier work.

hGABABR1a/R2 heterodimeric GABAB receptor (CHO membranes), sequence (Q9UBS5 20-961): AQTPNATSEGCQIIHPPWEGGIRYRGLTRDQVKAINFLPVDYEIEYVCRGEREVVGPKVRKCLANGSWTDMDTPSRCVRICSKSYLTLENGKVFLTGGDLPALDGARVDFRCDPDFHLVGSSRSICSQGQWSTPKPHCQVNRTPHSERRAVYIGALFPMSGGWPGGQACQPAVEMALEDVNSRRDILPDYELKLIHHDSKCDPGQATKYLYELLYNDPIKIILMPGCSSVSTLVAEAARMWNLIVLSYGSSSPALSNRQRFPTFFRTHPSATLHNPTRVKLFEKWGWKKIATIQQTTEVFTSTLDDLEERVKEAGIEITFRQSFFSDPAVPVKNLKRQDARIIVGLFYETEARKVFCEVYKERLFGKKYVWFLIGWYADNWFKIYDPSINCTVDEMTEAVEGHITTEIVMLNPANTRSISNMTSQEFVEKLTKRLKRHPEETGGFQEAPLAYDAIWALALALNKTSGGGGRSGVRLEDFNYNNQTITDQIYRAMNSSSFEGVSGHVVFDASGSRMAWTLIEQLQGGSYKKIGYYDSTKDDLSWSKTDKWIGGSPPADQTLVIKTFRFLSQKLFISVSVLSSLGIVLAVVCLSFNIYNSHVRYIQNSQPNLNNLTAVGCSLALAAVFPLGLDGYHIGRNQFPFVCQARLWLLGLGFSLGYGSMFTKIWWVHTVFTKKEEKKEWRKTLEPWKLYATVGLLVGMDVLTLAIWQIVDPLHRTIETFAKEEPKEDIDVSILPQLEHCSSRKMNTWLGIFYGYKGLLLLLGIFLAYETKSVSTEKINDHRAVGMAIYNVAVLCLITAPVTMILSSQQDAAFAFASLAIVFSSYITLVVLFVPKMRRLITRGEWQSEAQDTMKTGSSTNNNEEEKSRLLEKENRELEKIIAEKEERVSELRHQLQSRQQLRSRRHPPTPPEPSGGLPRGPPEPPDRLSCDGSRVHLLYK
hGABABR1a/R2 heterodimeric GABAB receptor (CHO membranes), sequence (O75899 42-941): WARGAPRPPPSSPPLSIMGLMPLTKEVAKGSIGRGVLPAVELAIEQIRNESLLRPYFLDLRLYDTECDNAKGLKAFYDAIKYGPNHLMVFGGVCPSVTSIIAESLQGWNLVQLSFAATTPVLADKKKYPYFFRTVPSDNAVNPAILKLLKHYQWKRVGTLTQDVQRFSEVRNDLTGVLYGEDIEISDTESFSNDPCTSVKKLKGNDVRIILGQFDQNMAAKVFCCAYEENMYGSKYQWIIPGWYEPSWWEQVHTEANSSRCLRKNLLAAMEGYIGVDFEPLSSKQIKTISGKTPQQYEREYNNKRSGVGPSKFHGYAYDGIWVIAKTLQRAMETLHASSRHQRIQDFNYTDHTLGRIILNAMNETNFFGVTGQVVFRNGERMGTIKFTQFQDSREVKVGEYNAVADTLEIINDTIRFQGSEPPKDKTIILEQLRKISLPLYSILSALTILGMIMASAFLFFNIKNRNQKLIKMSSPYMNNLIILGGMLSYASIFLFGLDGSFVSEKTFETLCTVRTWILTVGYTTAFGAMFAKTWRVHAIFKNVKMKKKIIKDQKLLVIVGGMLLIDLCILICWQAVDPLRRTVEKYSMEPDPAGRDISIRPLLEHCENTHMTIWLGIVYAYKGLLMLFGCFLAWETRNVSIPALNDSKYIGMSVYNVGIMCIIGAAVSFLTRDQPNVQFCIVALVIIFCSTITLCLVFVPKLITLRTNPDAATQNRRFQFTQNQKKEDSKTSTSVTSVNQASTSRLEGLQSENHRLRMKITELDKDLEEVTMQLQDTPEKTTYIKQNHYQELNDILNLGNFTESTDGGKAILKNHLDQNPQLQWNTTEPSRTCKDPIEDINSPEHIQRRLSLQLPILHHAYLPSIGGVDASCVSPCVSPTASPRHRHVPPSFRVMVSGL
hGABABR1a/GABABR2 receptor (CHO membranes), sequence (Q9UBS5 20-961): as the sequence (Q9UBS5 20-961) above
hGABABR1a/GABABR2 receptor (CHO membranes), sequence (O75899 42-941): as the sequence (O75899 42-941) above
GABAB receptor expressed by the hGABABR1a/GABABR2 CHO cell line, sequence (Q9UBS5 20-961): as the sequence (Q9UBS5 20-961) above
GABAB receptor expressed by the hGABABR1a/GABABR2 CHO cell line, sequence (O75899 42-941): as the sequence (O75899 42-941) above
native GABAB receptor, Pig, sequence (A0A480I1B8 1-960): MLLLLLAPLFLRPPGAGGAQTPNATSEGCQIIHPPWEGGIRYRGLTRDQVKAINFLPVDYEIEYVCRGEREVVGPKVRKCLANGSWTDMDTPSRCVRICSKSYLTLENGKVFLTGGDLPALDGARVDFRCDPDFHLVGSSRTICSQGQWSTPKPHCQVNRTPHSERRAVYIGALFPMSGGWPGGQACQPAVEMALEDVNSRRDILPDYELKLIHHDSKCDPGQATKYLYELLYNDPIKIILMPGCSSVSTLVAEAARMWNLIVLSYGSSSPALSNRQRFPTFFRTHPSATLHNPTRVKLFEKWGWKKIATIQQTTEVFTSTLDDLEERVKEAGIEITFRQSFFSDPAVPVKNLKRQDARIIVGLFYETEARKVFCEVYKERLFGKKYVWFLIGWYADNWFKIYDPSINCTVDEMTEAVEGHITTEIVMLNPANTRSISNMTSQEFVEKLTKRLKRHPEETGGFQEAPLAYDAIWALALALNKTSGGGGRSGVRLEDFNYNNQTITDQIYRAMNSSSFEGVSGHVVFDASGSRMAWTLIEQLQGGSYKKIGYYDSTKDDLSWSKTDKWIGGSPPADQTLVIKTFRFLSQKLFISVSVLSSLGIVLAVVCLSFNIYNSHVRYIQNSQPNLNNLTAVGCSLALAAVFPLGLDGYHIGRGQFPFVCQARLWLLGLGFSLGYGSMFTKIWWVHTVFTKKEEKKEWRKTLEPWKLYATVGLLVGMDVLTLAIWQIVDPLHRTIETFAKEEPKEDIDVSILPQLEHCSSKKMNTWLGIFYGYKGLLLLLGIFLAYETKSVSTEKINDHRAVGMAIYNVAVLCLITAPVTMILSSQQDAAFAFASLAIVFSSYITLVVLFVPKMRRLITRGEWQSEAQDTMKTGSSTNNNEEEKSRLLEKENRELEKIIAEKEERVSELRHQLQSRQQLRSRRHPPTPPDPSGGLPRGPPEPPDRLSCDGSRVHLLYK
T1 sequence (Q9Z0U4 20-960): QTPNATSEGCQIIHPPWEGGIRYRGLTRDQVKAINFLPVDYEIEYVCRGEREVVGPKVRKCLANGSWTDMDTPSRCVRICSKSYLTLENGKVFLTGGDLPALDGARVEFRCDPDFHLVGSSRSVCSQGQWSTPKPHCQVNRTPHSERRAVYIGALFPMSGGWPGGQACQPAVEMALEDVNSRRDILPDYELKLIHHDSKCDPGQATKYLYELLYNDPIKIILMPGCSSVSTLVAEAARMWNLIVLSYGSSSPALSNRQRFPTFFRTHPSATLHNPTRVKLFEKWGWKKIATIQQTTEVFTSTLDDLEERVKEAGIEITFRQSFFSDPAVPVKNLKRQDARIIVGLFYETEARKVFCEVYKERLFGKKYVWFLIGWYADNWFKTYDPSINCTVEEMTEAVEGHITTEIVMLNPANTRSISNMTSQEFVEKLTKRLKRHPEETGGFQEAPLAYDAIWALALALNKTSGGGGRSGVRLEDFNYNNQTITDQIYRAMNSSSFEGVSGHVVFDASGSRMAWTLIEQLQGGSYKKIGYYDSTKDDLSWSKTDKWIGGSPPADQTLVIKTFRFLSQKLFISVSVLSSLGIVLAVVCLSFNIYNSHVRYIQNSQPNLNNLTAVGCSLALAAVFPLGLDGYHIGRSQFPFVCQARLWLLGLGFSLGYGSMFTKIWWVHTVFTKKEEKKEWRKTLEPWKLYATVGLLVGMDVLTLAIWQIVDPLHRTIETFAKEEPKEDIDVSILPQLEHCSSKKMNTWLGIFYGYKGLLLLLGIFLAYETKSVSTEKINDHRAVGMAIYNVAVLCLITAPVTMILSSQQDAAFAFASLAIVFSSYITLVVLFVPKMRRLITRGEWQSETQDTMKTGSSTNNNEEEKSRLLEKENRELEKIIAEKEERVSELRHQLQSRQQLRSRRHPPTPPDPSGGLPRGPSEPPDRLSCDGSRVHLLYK
T1 sequence (O88871 41-940 partner): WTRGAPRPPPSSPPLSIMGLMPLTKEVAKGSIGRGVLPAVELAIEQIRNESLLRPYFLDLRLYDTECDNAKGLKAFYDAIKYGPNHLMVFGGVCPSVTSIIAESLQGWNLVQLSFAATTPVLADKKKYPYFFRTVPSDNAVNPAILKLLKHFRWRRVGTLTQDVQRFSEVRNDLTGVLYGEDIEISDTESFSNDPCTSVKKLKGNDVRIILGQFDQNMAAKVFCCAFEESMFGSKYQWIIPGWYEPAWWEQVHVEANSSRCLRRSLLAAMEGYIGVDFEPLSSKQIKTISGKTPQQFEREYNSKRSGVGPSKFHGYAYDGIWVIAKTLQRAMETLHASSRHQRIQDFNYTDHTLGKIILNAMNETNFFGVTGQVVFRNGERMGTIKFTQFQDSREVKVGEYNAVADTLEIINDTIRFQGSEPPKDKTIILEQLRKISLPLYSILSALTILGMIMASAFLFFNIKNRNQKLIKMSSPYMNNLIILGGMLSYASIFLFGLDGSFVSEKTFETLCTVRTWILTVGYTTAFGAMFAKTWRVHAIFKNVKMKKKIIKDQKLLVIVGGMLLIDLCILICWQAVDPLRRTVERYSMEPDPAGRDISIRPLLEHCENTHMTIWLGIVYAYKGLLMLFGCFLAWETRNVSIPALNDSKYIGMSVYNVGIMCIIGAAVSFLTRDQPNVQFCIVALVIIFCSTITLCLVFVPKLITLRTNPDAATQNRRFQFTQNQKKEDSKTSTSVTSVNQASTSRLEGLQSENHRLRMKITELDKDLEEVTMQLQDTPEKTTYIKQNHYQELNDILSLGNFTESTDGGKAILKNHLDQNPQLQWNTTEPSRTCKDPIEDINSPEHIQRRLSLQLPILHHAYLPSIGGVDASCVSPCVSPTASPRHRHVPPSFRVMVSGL

`CC1(C)CC2=Nc3c(Cl)ncnc3SC2=C(NCCCC(=O)O)C1`: in assay [1], the “SIGNAL TRANSDUCTION GTPγS binding % Effect at 10 μM” value was determined as 61.93%. In addition, the IC50 in assay [2] was 0.135 µM. `C[C@H](NC[C@H](O)CP(=O)(O)CC1CCCCC1)c1ccc(Cl)c(Cl)c1` [CGP54626, reference compound]: the “effect on 3H-GABA binding to both the high and the low affinity site” value in assay [3] is given as “blocked”. With `CC(C)(CO)Cc1cc(C(C)(C)C)c(O)c(C(C)(C)C)c1` [CGP7930, reference compound], the “effect on GABA-stimulated GTPγ35S binding” value in assay [1] (positive modulator, FIG. 1) is “potentiated”. `CN(C)c1ncnc2c1N=C1CC(C)(C)CC(NCCCC(=O)O)=C1S2` [drawing 15]: in assay [1], the “SIGNAL TRANSDUCTION GTPγS binding % Effect at 10 μM” value amounted to 45.7275%. This compound also showed an IC50 in assay [2] of 0.0649 µM. For the compound `C[C@H](NC[C@H](O)CP(=O)(O)CC1CCCCC1)c1ccc(Cl)c(Cl)c1` [^3H-CGP54626], the Kd in assay [4] is 0.00135 µM; in assay [5] it was 0.0015 µM. For `NCCCC(=O)O` [^3H-GABA], in assay [4], the Kd is 0.026 µM. `CN(C)c1ncnc2c1N=C1CC(C)(C)CC(NCCCC(=O)O)=C1S2` [compound 1]: the “effect on 3H-GABA binding to both the high and the low affinity site” value in assay [3] was “blocked”. `CC1(C)CC2=Nc3c(N)ncnc3SC2=C(NCCCC(=O)O)C1`: the “SIGNAL TRANSDUCTION GTPγS binding % Effect at 10 μM” value in assay [1] is recorded as 40.95%. The compound also had an IC50 in assay [2] of 0.151 µM. For `CC1(C)CC2=Nc3ccccc3SC2=C(NCCCC(=O)O)C1` the same measures were 24.44% and 0.372 µM.

For orientation: IC50 means the concentration that inhibits the measured activity by half. Low values mean greater potency, high ones weaker potency. What is called Kd is the equilibrium constant for the complex coming apart.
